Measurements from PubChem BioAssay AID449762 (Southern Research Specialized Biocontainment Screening …, 2010).
Records with an inconclusive call do not appear.

Test system: M. tuberculosis H37Rv growth inhibition, 7H9 media
Experiment: M. tuberculosis growth inhibition, HTS (AID 449762);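 note: bacterial growth assessed after seven days of incubation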
Details: for IC90: measured here: IC90 growth inhibition

Row | Structure (SMILES) | IC50 | IC90
1 | CCCCCC(O)c1cccc(OCc2ccc3ccccc3n2)c1 (stereo unspecified) | 44.7 µM | 50.5 µM
2 | CCc1ccc2oc(-c3cc(N=Cc4cccc(OC)c4O)ccc3O)nc2c1 | 35.8 µM | 69.3 µM
3 | O=C1c2ccccc2S(=O)(=O)c2cc(C(=O)N3CCN(c4c(Cl)cncc4Cl)CC3)ccc21 | 32 µM | 46.5 µM
4 | CN(C(=O)COC(=O)c1sc2ccccc2c1Cl)C1CCCCC1 | 4.8 µM | 15 µM
5 | CCOC(=O)CSc1ccc(C(=O)Nc2ccc(OC)cc2)cn1 | < 0.2 µM | > 100 µM
6 | CSCCOC(=O)COc1ccc(/C=N/NC(=O)c2c(Cl)cnn2C)cc1 | 9.04 µM | 22.6 µM
7 | O=C(NC1CCN(C(=O)N2c3ccccc3Sc3ccccc32)CC1)c1ccccc1F | 86.1 µM | > 100 µM
8 | CCCCCCCCCCOC(=O)Cn1c(COc2ccc(Cl)cc2)[n+](C)c2ccccc21 | 11.8 µM | 13.3 µM
9 | O=C(NNc1nc(-c2ccccc2)cs1)c1ccccc1 | 7.6 µM | > 100 µM
10 | Cc1ccc(C(=O)Nc2ccc3c4c(cccc24)CC3)cc1[N+](=O)[O-] | < 0.2 µM | > 100 µM
11 | CCOC(=O)N1CCC(n2c(SCC(=O)OCc3ccccc3)nc3ccsc3c2=O)CC1 | 27.1 µM | > 100 µM
12 | N#C/C=C\Oc1ccc(Cl)cc1N | 14 µM | 23.3 µM
13 | CCCC(=O)OCCNc1cc(SCCC(=O)OC)c2nonc2c1[N+](=O)[O-] | 1.49 µM | 5.7 µM
14 | CN(CCCCCCCCCCN(C)C(=O)Oc1cccc([N+](C)(C)C)c1)C(=O)Oc1cccc([N+](C)(C)C)c1 | 1.49 µM | 4.04 µM
15 | CCOC(=O)CSc1nc(C)c(C(=O)OCC)s1 | 3.62 µM | 9.29 µM
16 | N#Cc1c(-c2ccccc2)c(-c2ccccc2)nn(CC(=O)NNC(=O)Nc2ccc(Cl)c(Cl)c2)c1=O | 49.2 µM | 55.5 µM
17 | O=C(NCCC1=CCCCC1)c1c(O)nc2sccn2c1=O | 72.8 µM | > 100 µM
18 | COc1ccc2cc1Oc1ccc(cc1)C[C@H]1c3c(cc(OC)c4c3Oc3c(ccc5c3[C@H](C2)N(C)CC5)O4)CCN1C | 4.9 µM | 6.44 µM
19 | COc1ccc(C(CC(=O)c2ccccc2)S(=O)(=O)c2ccc(C)cc2)cc1 (stereo unspecified) | 20.2 µM | 29.4 µM
20 | CCOC(=O)N1CCN(c2nc(N(c3ccccc3)c3ccccc3)nc(-n3ccnc3)n2)CC1 | 92.7 µM | > 100 µM
21 | CC1CCc2c(C(=O)Nc3nccs3)csc2C1 (stereo unspecified) | 7.27 µM | 22.8 µM
22 | COc1ccc(N2CN=C3SCC(=O)N3C2)cc1 |  | > 100 µM

Row | Structure (SMILES) | IC50 | IC90
23 | S=C(NCCc1ccccc1)NN=C1CCCCCC1 | 23.1 µM | 26.6 µM
24 | CCOc1ccc(-c2cc(C)[n+](CCc3ccc(OC)c(OC)c3)c(-c3ccc(OCC)cc3)c2)cc1 | 0.92 µM | 1.8 µM
25 | O=C(OCc1ccccc1)c1cccc(-c2nnn(Cc3ccccc3)n2)c1 | 67.7 µM | > 100 µM
26 | CCCn1c(=N)c(C(=O)NCc2ccc3c(c2)OCO3)cc2c(=O)n3cccc(C)c3nc21 | 19.8 µM | 29 µM
27 | COC(=O)CSc1ncnc2c1cnn2-c1ccc(C)cc1C | 3.82 µM | 7.95 µM
28 | COc1ccc(-n2c(-c3ccc(Cl)cc3)c[n+]3c2CCc2ccccc2-3)cc1 | 16.4 µM | 24.2 µM
29 | C/C(=N\NC(=O)COc1ccc(C)cc1Br)c1cc([N+](=O)[O-])cs1 | 4.07 µM | 34.1 µM
30 | CC(=O)OCC1O[C@@H](O[C@@H]2C[C@H]3C(C)(C)[C@H](OC(C)=O)CC[C@]3(C)[C@H]3CC[C@]45C[C@]4(CC[C@H]5[C@@H](C)C[C@@H](O)[C@H](O)C(C)(C)O)[C@@]32C)[C@H](O)[C@@H](O)[C@@H]1O (stereo partly specified) | 30.7 µM | 39.6 µM
31 | O=C(/C=C/c1c(F)cccc1Cl)c1ccc(F)cc1 | 23.8 µM | 34.4 µM
32 | CC(C)OC(=O)c1ccc(COC(=O)c2cnccn2)cc1 | 7.68 µM | > 100 µM
33 | O=C(O)c1[nH]c(=O)[nH]c(=O)c1F | 4.58 µM | 14.2 µM
34 | O=c1c2ccccc2nc(/C=C/c2ccccc2)n1-c1ccc(O)cc1 |  | > 100 µM
35 | C=C(C)C(=O)OCC(O)COc1ccc(C(C)(C)c2ccc(OCC(O)COC(=O)C(=C)C)cc2)cc1 (stereo unspecified) | 37.8 µM | 48.5 µM
36 | S=C(Nc1ccc(Nc2ccccc2)cc1)Nc1ccccn1 | 48.7 µM | > 50 µM
37 | Cc1ccc(-c2csc(N3CCN(CCCn4c(-c5ccncc5)nc5ccccc54)CC3)n2)cc1 | 23.4 µM | 26.5 µM
38 | Cc1nn(C(C)(C)C)c(NC(=O)c2ccc(Cl)cc2Cl)c1Br | 2.97 µM | > 100 µM
39 | CCN1/C(=C/c2ccc3cc(C)ccc3[n+]2CC)Sc2ccccc21 | 1.41 µM | 1.61 µM
40 | Cc1[nH]c2ccc(OC(F)(F)F)cc2c1CCNCc1ccc(Cl)cc1 | 10.9 µM | 19 µM
41 | COc1cc2ccccc2cc1C(=O)Nc1ccc(Cc2ccncc2)cc1 | 2.26 µM | 16.8 µM
42 | CCOC(=O)C1CCN(CC(O)COc2ccc(C(C)(C)CC)cc2)CC1 (stereo unspecified) | 22.8 µM | 29.5 µM
43 | COc1ccccc1C(CNC(=O)C(C)(C)Oc1ccc(Cl)cc1)N1CCCC1 (stereo unspecified) | 23.5 µM | 26.5 µM
44 | O=C(CCc1c[nH]c2ccccc12)N1CCN(S(=O)(=O)c2ccccc2)CC1 | 94.3 µM | > 100 µM
